Reference: patent US9532945B2, “Oral dosage forms including an antiplatelet agent and an enterically coated acid inhibitor” (KG ACQUISITION LLC, priority 2006, dated 2017)

How the values were obtained:
[1] = Excipient compatibility study: physical appearance; assay type: physicochemical; parameters: key: T: Off white powder with pellets; V: Off white powder with white pellets; W: Off white powder with off white pellets; X: Off white powder without pellets; Y: Off white powder with pellets and shells; Z: Sticky off white powder with grey pellets; S: Off white powder with blue pellets; R: Off white powder with grey pellets; Q: Off white powder with brown pellets; P: Brownish sticky powder with gray pellets; Off white powder with sticking brown pellets; N: Brownish sticky powder with blue pellets; M: Slight yellow powder with grey pellets; Light brownish sticky powder with off white pellets; K: Slight yellow agglutinate; J: Sticky off white powder with off white pellets; I: Capsule shells with white pellets and off white powder; H: Capsule shells with yellowish pellets and off white powder; conditions: stored at 40° C./75% RH
Method: In addition to the excipients used in the commercial formulation, some commonly used excipients were also tested. […] Samples were stored also at 25° C./60% RH to be tested only if the stress sample failed. […] The development work explored the compatibility of both APIs together with each of the proposed excipients individually in different ratios depending on the function of the excipient at different temperature and humidity conditions. The selected excipients were mixed with the APIs in different ratios depending on the excipient functionality (Table 5). In addition, samples of pure APIs and excipients were prepared and provided as reference and control respectively.

[2] = at a pH greater than about 4; cited from earlier work

Row | Physical Appearance ([1]; 1 week) | Physical Appearance ([1]; 2 weeks) | Physical Appearance ([1]; 4 weeks) | Physical Appearance ([1]; 6 weeks) | Physical Appearance ([1]; 8 weeks) | Physical Appearance ([1]; 12 weeks) | Physical Appearance ([1]; Initial) | SMILES | solubility [2]
1 | X | X | X | X | X | X | X | COC(=O)[C@H](c1ccccc1Cl)N1CCc2sccc2C1 [Clopidogrel Bisulfate] | –
2 | – | – | – | – | – | – | – | COC(=O)[C@H](c1ccccc1Cl)N1CCc2sccc2C1 [clopidogrel] | reduced solubility
